pEC50: −log10 of the molar value.
Target: T1, human LXRβ (Homo sapiens, UniProt P55055)
T1 construct: expressed in transfected cells; host or cells: HEK293 cells (ATCC CRL-1573), transient transfection with pFA-hLXRβ/GAL4 and pUAS
T1 sequence (P55055 222-460 limits assumed): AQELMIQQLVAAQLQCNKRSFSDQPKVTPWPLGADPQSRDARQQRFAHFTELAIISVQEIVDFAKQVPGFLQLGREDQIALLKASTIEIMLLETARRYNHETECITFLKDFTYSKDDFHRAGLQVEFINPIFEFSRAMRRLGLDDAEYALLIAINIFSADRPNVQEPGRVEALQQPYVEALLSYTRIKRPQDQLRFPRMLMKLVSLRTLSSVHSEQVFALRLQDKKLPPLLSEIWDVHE
Test: Assay for Transcriptional Activity of LXRβ (GAL4-hLXRβ LBD luciferase reporter, transient transfection)
Type: cell-based
Settings: HEK293 cells transfected with pFA-hLXRβ/GAL4 and pUAS, 24 hours; for Emax: fold value in comparison with the control (DMSO-treated group); for pEC50: increase of transcriptional activity of LXRβ, average of three independent tests
Summary of the method: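 HEK293 cells transiently co-transfected with GAL4-hLXRβ LBD and 5×GAL4-UAS luciferase reporter, treated 24 h at 37 °C with compounds over 9 points (0.01–50 μM, half-log). Luminescence read after lysis; EC50 from four-parameter fit, mean of three independent tests, with a known LXR agonist as positive control.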

SMILES	Emax	pEC50
CS(=O)(=O)c1c(F)cc(-c2ccc(C3CC(C(O)(C(F)(F)F)C(F)(F)F)=NN3c3ccc(F)cc3F)cc2)cc1F (stereo not shown) [Example 388, 1-(2,4-difluoro-phenyl)-5-(3′,5′-difluoro-4′-methanesulfonyl-biphenyl-4-yl)-3-[di-(trifluoromethyl)-hydroxy-methyl]-4,5-dihydro-1H-pyrazole]	25 fold	7.22
CS(=O)(=O)c1cc(F)c(-c2ccc(C3CC(C(O)(C(F)(F)F)C(F)(F)F)=NN3c3ccc(F)cc3F)cc2)c(F)c1 (stereo not shown) [Example 389, 1-(2,4-difluoro-phenyl)-5-(2′,6′-difluoro-4′-methanesulfonyl-biphenyl-4-yl)-3-[di-(trifluoromethyl)-hydroxy-methyl]-4,5-dihydro-1H-pyrazole]	29 fold	6.30
CS(=O)(=O)c1ccc(-c2ccc(C3CC(C(O)(C(F)(F)F)C(F)(F)F)=NN3c3ccc(F)cc3F)cc2)cc1C#N (stereo not shown) [Example 390, 1-(2,4-difluoro-phenyl)-5-(3′-cyano-4′-methanesulfonyl-biphenyl-4-yl)-3-[di-(trifluoromethyl)-hydroxy-methyl]-4,5-dihydro-1H-pyrazole]	55 fold	6.50
CS(=O)(=O)c1ccc(-c2ccc(C3CC(C(O)(C(F)(F)F)C(F)(F)F)=NN3c3ccc(F)cc3F)cc2)nc1 (stereo not shown) [Example 391, 1-(2,4-difluoro-phenyl)-5-[4-(5-methanesulfonyl-pyridin-2-yl)-phenyl]-3-[di-(trifluoromethyl)-hydroxy-methyl]-4,5-dihydro-1H-pyrazole]	26 fold	6.76
CS(=O)(=O)c1ccc(-c2ccc(C3CC(C(O)(C(F)(F)F)C(F)(F)F)=NN3c3ccc(F)cc3F)cc2)cc1C(F)(F)F (stereo not shown) [Example 392, 1-(2,4-difluoro-phenyl)-5-(4′-methanesulfonyl-3′-trifluoromethyl-biphenyl-4-yl)-3-[di-(trifluoromethyl)-hydroxy-methyl]-4,5-dihydro-1H-pyrazole]	26 fold	6.83
OC(C1=NN(c2ccc(F)cc2F)C(c2ccc(-c3c(F)cc(-n4cnnn4)cc3F)cc2)C1)(C(F)(F)F)C(F)(F)F (stereo not shown) [Example 393, 1-(2,4-difluoro-phenyl)-5-{[2′,6′-difluoro-4′-(tetrazol-1-yl)-biphenyl]-4-yl}-3-[di-(trifluoromethyl)-hydroxy-methyl]-4,5-dihydro-1H-pyrazole]	8 fold	6.10
Cc1cc(-n2cnnn2)ncc1-c1ccc(C2CC(C(O)(C(F)(F)F)C(F)(F)F)=NN2c2ccc(F)cc2F)cc1 (stereo not shown) [Example 394, 1-(2,4-difluoro-phenyl)-5-{4-[4-methyl-6-(tetrazol-1-yl)-pyridin-3-yl]-phenyl}-3-[di-(trifluoromethyl)-hydroxy-methyl]-4,5-dihydro-1H-pyrazole]	50 fold	7.08
CN(CCCS(=O)(=O)c1cccc(-c2ccc(C3CC(C(O)(C(F)(F)F)C(F)(F)F)=NN3c3ccc(F)cc3F)cc2)c1)C(=O)OC(C)(C)C (stereo not shown) [Example 395, 5-{3′-[3-(N-BOC-N-methyl-amino)-propane-1-sulfonyl]-biphenyl-4-yl}-1-(2,4-difluoro-phenyl)-3-(di-(trifluoromethyl)-hydroxy-methyl)-4,5-dihydro-1H-pyrazole]	83 fold	9.40
CN(C)S(=O)(=O)c1ccc(-c2ccc(C3CC(C(O)(C(F)(F)F)C(F)(F)F)=NN3c3ccc(F)cc3F)cc2)cc1 (stereo not shown) [Example 396, 1-(2,4-difluoro-phenyl)-5-(4′-dimethylsulfamoyl-biphenyl-4-yl)-3-(di-(trifluoromethyl)-hydroxy-methyl)-4,5-dihydro-1H-pyrazole]	83 fold	6.84
CC(C)(C)OC(=O)N1CC=C(c2ccc(C3CC(C(O)(C(F)(F)F)C(F)(F)F)=NN3c3ccc(F)cc3F)cc2)CC1 (stereo not shown) [Example 398, 1-(2,4-difluoro-phenyl)-5-[4-(1-BOC-1,2,3,6-tetrahydropyridin-4-yl)-phenyl]-3-[di-(trifluoromethyl)-hydroxy-methyl]-4,5-dihydro-1H-pyrazole]	12 fold	5.74
CS(=O)(=O)N1CC=C(c2ccc(C3CC(C(O)(C(F)(F)F)C(F)(F)F)=NN3c3ccc(F)cc3F)cc2)CC1 (stereo not shown) [Example 400, 1-(2,4-difluoro-phenyl)-5-[4-(1-methanesulfonyl-1,2,3,6-tetrahydropyridin-4-yl)-phenyl]-3-[di-(trifluoromethyl)-hydroxy-methyl]-4,5-dihydro-1H-pyrazole]	38 fold	6.42
CN(C)S(=O)(=O)N1CC=C(c2ccc(C3CC(C(O)(C(F)(F)F)C(F)(F)F)=NN3c3ccc(F)cc3F)cc2)CC1 (stereo not shown) [Example 401, 1-(2,4-difluoro-phenyl)-5-[4-(1-dimethylsulfamoyl-1,2,3,6-tetrahydropyridin-4-yl)-phenyl]-3-[di-(trifluoromethyl)-hydroxy-methyl]-4,5-dihydro-1H-pyrazole]	45 fold	6.11
CC(C)C(=O)N1CC=C(c2ccc(C3CC(C(O)(C(F)(F)F)C(F)(F)F)=NN3c3ccc(F)cc3F)cc2)CC1 (stereo not shown) [Example 402, 1-(2,4-difluoro-phenyl)-5-[4-(1-isobutyryl-1,2,3,6-tetrahydropyridin-4-yl)-phenyl]-3-[di-(trifluoromethyl)-hydroxy-methyl]-4,5-dihydro-1H-pyrazole]	23 fold	5.99
CN(C)C(=O)N1CC=C(c2ccc(C3CC(C(O)(C(F)(F)F)C(F)(F)F)=NN3c3ccc(F)cc3F)cc2)CC1 (stereo not shown) [Example 403, 1-(2,4-difluoro-phenyl)-5-[4-(1-dimethylcarbamoyl-1,2,3,6-tetrahydropyridin-4-yl)-phenyl]-3-[di-(trifluoromethyl)-hydroxy-methyl]-4,5-dihydro-1H-pyrazole]	22 fold	5.93
CC(C)(C)OC(=O)N1CCN(c2ccc(C3CC(C(O)(C(F)(F)F)C(F)(F)F)=NN3c3ccc(F)cc3F)cc2)CC1 (stereo not shown) [Example 404, 1-(2,4-difluoro-phenyl)-5-[4-(4-BOC-piperazin-1-yl)-phenyl]-3-[di-(trifluoromethyl)-hydroxy-methyl]-4,5-dihydro-1H-pyrazole]	15 fold	5.28
CS(=O)(=O)N1CCN(c2ccc(C3CC(C(O)(C(F)(F)F)C(F)(F)F)=NN3c3ccc(F)cc3F)cc2)CC1 (stereo not shown) [Example 406, 1-(2,4-difluoro-phenyl)-5-[4-(4-methanesulfonyl-piperazin-1-yl)-phenyl]-3-[di-(trifluoromethyl)-hydroxy-methyl]-4,5-dihydro-1H-pyrazole]	53 fold	6.02
CN(C)S(=O)(=O)N1CCN(c2ccc(C3CC(C(O)(C(F)(F)F)C(F)(F)F)=NN3c3ccc(F)cc3F)cc2)CC1 (stereo not shown) [Example 407, 1-(2,4-difluoro-phenyl)-5-[4-(4-dimethylsulfamoyl-piperazin-1-yl)-phenyl]-3-[di-(trifluoromethyl)-hydroxy-methyl]-4,5-dihydro-1H-pyrazole]	58 fold	6.14
CS(=O)(=O)N1CCCN(c2ccc(C3CC(C(O)(C(F)(F)F)C(F)(F)F)=NN3c3ccc(F)cc3F)cc2)CC1 (stereo not shown) [Example 410, 1-(2,4-difluoro-phenyl)-5-[4-(4-methanesulfonyl-homopiperazin-1-yl)-phenyl]-3-[di-(trifluoromethyl)-hydroxy-methyl]-4,5-dihydro-1H-pyrazole]	74 fold	6.81
CN(C)S(=O)(=O)N1CCCN(c2ccc(C3CC(C(O)(C(F)(F)F)C(F)(F)F)=NN3c3ccc(F)cc3F)cc2)CC1 (stereo not shown) [Example 411, 1-(2,4-difluoro-phenyl)-5-[4-(4-dimethylsulfamoyl-homopiperazin-1-yl)-phenyl]-3-[di-(trifluoromethyl)-hydroxy-methyl]-4,5-dihydro-1H-pyrazole]	62 fold	6.34
CNCCCS(=O)(=O)c1cccc(-c2ccc(C3CC(C(O)(C(F)(F)F)C(F)(F)F)=NN3c3ccc(F)cc3F)cc2)c1 (stereo not shown) [Example 412, 1-(2,4-difluoro-phenyl)-5-{3′-[3-(methyl-amino)-propane-1-sulfonyl]-biphenyl-4-yl}-3-[di-(trifluoromethyl)-hydroxy-methyl]-4,5-dihydro-1H-pyrazole]	53 fold	6.14
CS(=O)(=O)c1cccc(-c2ccc(C3CC(C(O)(C(F)(F)F)C(F)(F)F)=NN3c3ccc(F)cc3F)cc2)c1 (stereo not shown) [Example 413, 1-(2,4-difluoro-phenyl)-5-[3′-methanesulfonyl-biphenyl-4-yl]-3-[di-(trifluoromethyl)-hydroxy-methyl]-4,5-dihydro-1H-pyrazole]	49 fold	6.81
CSc1cccc(-c2ccc(C3CC(C(O)(C(F)(F)F)C(F)(F)F)=NN3c3ccccc3Cl)s2)c1 (stereo not shown) [Example 414, 1-(2-chloro-phenyl)-5-{5-[3-(methylsulfanyl)-phenyl]-thiophen-2-yl}-3-[di-(trifluoromethyl)-hydroxy-methyl]-4,5-dihydro-1H-pyrazole]	125 fold	6.71
CSc1ccc(-c2ccc(C3CC(C(O)(C(F)(F)F)C(F)(F)F)=NN3c3ccccc3Cl)s2)cn1 (stereo not shown) [Example 415, 1-(2-chloro-phenyl)-5-{5-[6-(methylsulfanyl)-pyridin-3-yl]-thiophen-2-yl}-3-[di-(trifluoromethyl)-hydroxy-methyl]-4,5-dihydro-1H-pyrazole]	100 fold	6.46
